{
  "source": "patent US20040121931A1",
  "about": "“Aqueous perborate bleach composition” (Unilever Home & Persona Care USA, Division of Conopco, Inc., priority 2002, published 2004)",
  "assay": "Iterative determination of perborate solubility in water and polyol/water (visual)",
  "assay_type": "physicochemical",
  "experimental": "An iterative process was used to determine the extent of perborate solubilty in water and polyol/water. 1.5 g of Na perborate monohydrate was added either to 100 g of water (Table 1A) or to 90 g water and 10 g sorbitol (70% active) (Table 1B). The mixture was stirred until all of sodium perborate monohydrate was dissolved. A 0.5 g aliquot of sodium perborate monohydrate was then added to the solution while stirring and visually monitored to see if all the added sodium perborate monohydrate dissolves. If the aliquot dissolved, another 0.5 g of sodium perborate monohydrate would be added. This procedure was continued until the added perborate no longer appeared to dissolve.",
  "key": {"[1]": {"conditions": "1.50 g in 90 g water + 10 g sorbitol (70%), perborate/sorbitol 1/3.55"}, "[2]": {"conditions": "3.50 g in 90 g water + 10 g sorbitol (70%), perborate/sorbitol 1/1.01"}, "[3]": {"conditions": "5.50 g in 90 g water + 10 g sorbitol (70%), perborate/sorbitol 1.43/1"}, "[4]": {"conditions": "8.00 g in 90 g water + 10 g sorbitol (70%), perborate/sorbitol 2.09/1"}, "[5]": {"conditions": "8.50 g in 90 g water + 10 g sorbitol (70%), perborate/sorbitol 2.22/1"}, "[6]": {"conditions": "9.50 g in 90 g water + 10 g sorbitol (70%), perborate/sorbitol 2.49/1"}},
  "data": [
    {"compound": "O.O=BO[O-].[Na+]", "note": "[Sodium Perborate monohydrate, sodium perborate monohydrate]", "values": [
      {"measurement": "Appearance", "setting": "[1]", "value": "Clear solution"},
      {"measurement": "pH", "setting": "[1]", "value": 8.30},
      {"measurement": "Appearance", "setting": "1.5 g in 100 g water", "value": "Clear solution"},
      {"measurement": "pH", "setting": "1.5 g in 100 g water", "value": 10.00},
      {"measurement": "Appearance", "setting": "2.0 g in 100 g water", "value": "Precipitate formed"},
      {"measurement": "pH", "setting": "2.0 g in 100 g water", "value": 10.06},
      {"measurement": "Appearance", "setting": "[2]", "value": "Clear solution"},
      {"measurement": "pH", "setting": "[2]", "value": 9.33},
      {"measurement": "Appearance", "setting": "[3]", "value": "Clear solution"},
      {"measurement": "pH", "setting": "[3]", "value": 9.56},
      {"measurement": "Appearance", "setting": "[4]", "value": "Clear solution"},
      {"measurement": "pH", "setting": "[4]", "value": 9.60},
      {"measurement": "Appearance", "setting": "[5]", "value": "Precipitate"},
      {"measurement": "pH", "setting": "[5]", "value": 9.60},
      {"measurement": "Appearance", "setting": "[6]", "value": "Precipitate"},
      {"measurement": "pH", "setting": "[6]", "value": 9.60},
      {"measurement": "solubility in water, in the presence of polyol", "setting": "90 g water and 10 g sorbitol (70% active)", "value": "up to 8.5 g"},
      {"measurement": "increase of solubility of perborate by polyol", "setting": "aqueous environment, with sorbitol vs without", "value": "about 400%"},
      {"measurement": "solubility in water", "setting": "in 100 g water, no polyol", "value": "below 2.0 g"}
    ]}
  ]
}
